Measurements reported in patent US20220226484A1, “THERAPEUTIC PEPTIDES” (COHBAR, INC., priority 2019, published 2022).
Non-standard residues stand in square brackets, D forms with d. No end group written: not given here.

Experiments:
[1] = tested on: SH-SY5Y Neuroblastoma Cells; assay: ATP levels (CellTiter-Glo); assay type: cell-based, human; details: peptide 10 μM, 18-20 hours, relative to 0.1% DMSO treated control
Procedure: The effect of the peptides on cellular metabolism can be assessed using an assay of ATP levels in cultured cells such as human neuroblastoma cells. Peptides were initially prepared as 10 mM stock in DMSO and used at a final concentration of 10 μM (0.1% DMSO). […] CellTiter-Glo® Assay kit was purchased from Promega. SH-SY5Y human bone marrow neuroblastoma cell line was purchased from American Type Culture Collection (Manassas, Va.) and licensed from Memorial Sloan-Kettering Cancer Center (New York, N.Y.). SH-SY5Y cells were grown in DMEM/F12 medium supplemented with 10% FBS with 100 IU/ml penicillin and 100 μg/ml streptomycin. Cultures were maintained at 37° C. in a humidified atmosphere of 5% CO2/95% air. SH-SY5Y cells were seeded at 30,000 cells per well on 96-well plates. […] ATP levels were determined using a CellTiter-Glo Assay kit (Promega) according to the manufacturer's instructions. Luminescence for each sample well on the plate was measured using a Cytation 3 plate reader (BioTek, Winooski, Vt.). Activity was calculated relative to 0.1% DMSO treated control. The relative standard deviation of the result for the 0.1% DMSO treated control was <5%.

C2C12 Mouse Myoblasts = assay: Glucose utilization; assay type: cell-based; details: peptide 10 μM, 18-22 hours, relative to 0.1% DMSO treated control
Procedure: The effect of the peptides on glucose metabolism can be assessed using an assay of glucose utilization in cultured cultured cells such as mouse myoblasts. Peptides were initially prepared as 10 mM stock in DMSO and used at a final concentration of 10 μM (0.1% DMSO). C2C12 mouse myoblast cell line was purchased from American Type Culture Collection (Manassas, Va.). C2C12 cultures were maintained at 37° C. in a humidified atmosphere of 5% CO2/95% air with medium changes every second day. C2C12 cells were grown in DMEM (1 g/L glucose) supplemented with 10% FBS with 100 IU/ml penicillin and 100 μg/ml streptomycin. C2C12 cells were seeded at 7,000 cells per well on 96-well plates and cultured to confluence. Once the cell reached confluence the media was changed to DMEM (1 g/L glucose) supplemented with 2% HS with 100 IU/ml penicillin and 100 μg/ml streptomycin and maintained at 37° C. in a humidified atmosphere of 5% CO2/95% air. 5 days post-induction of differentiation fresh DMEM (1 g/L glucose) supplemented with 2% HS with 100 IU/ml penicillin and 100 μg/ml streptomycin was added to cultures. Cells were maintained at 37° C. in a humidified atmosphere of 5% CO2 and 95% air for 5 hours. After 5 hours test peptides at 10 μM or controls (0.5 mM or 1 mM metformin in 1% DMSO) prepared in fresh differentiation medium were added to cells and the cultures were maintained at 37° C. in a humidified atmosphere of 5% CO2/95% air for 18-22 hours. At the end of the incubation culture media was removed from the cells and the remaining glucose concentration was measured using a Glucose Assay kit (Abcam) according to the manufacturer's instructions, using a Cytation 3 plate reader at 570 nm (BioTek, Winooski, Vt.). Glucose concentrations in the medium were calculated relative to 0.1% DMSO treated control cells. The relative standard deviation of the result for the 0.1% DMSO treated control was <20%. Metformin was used as a positive control for reduction of glucose levels (increased glucose utilization glucose levels for treatment with metformin (1 mM) treatment were <20% of the 0.1% DMSO treated control value. The results are reported in Table 7.

[2] = tested on: SH-SY5Y Neuroblastoma Cells Exposed to Staurosporine; assay: ATP levels in cells exposed to staurosporine; assay type: cell-based, human; details: peptide 10 μM with staurosporine, 18-20 hours; <100% cytoprotective, >100% synergistic
Procedure: Peptides were initially prepared as 10 mM stock in DMSO and tested at a final concentration of 10 μM (0.1% DMSO). […] […] CellTiter-Glo® Assay kit was purchased from Promega. SH-SY5Y human neuroblastoma cell line was purchased from American Type Culture Collection (Manassas, Va.) and licensed from Memorial Sloan-Kettering Cancer Center (New York, N.Y.). SH-SY5Y cells were grown in DMEM/F12 medium supplemented with 10% FBS with 100 IU/ml penicillin and 100 μg/ml streptomycin. Cultures were maintained at 37° C. in a humidified atmosphere of 5% CO2/95% air. SH-SY5Y cells were seeded at 30,000 cells per well on 96-well plates. […] ATP levels were determined using a CellTiter-Glo Assay kit (Promega) according to the manufacturer's instructions. Luminescence for each sample well on the plate was measured using a Cytation 3 plate reader (BioTek, Winooski, Vt.). […] A value less than 100% is indicative of a cytoprotective effect, while a value greater than 100% is indicative of a synergistic effect on viability.

A172 Cells = assay: Cell viability, PrestoBlue Assay; assay type: cell-based, human; details: peptide 10 μM, 18-20 hours, relative to 0.1% DMSO control
Procedure: The effect of the peptides on cell viability can be assessed in cultured cells using suitable assay of viability such as the PrestoBlue® assay (Thermo Fisher Scientific, Waltham, Mass.). Peptides were initially prepared as 10 mM stock in DMSO and tested at a final concentration of 10 μM (0.1% DMSO). […] PrestoBlue Assay Reagent was purchased from Thermo Fisher Scientific. A172 human brain glioblastoma cell line was purchased from American Type Culture Collection (Manassas, Va.). A172 cells were grown in DMEM supplemented with 10% FBS with 100 IU/ml penicillin and 100 μg/ml streptomycin. Cultures were maintained at 37° C. in a humidified atmosphere of 5% CO2/95% air. A172 cells were seeded at 8,000 cells per well on 96-well plates. […] Cell viability was determined using a PrestoBlue Assay reagent […] according to the manufacturer's instructions. Absorption for each sample well on the plate was measured using a Cytation 3 plate reader at 560 nm and 590 nm (BioTek, Winooski, Vt.). Activity was calculated relative to 0.1% DMSO untreated control. Treatment with 0.1% DMSO alone was used as the cell viability activity control. The relative standard deviation of the DMSO control was <5%.

[3] = tested on: Rat primary cortical neurons; assay: Neuroprotection against Aβ (1-42) toxicity in cultured neurons; assay type: cell-based; details: 24 hours
Procedure: Rat primary cortical neurons were collected and cultured by methods well known in the art (Singer et al., 1999 and Callizot et al., 2013). The cells were seeded at a density of 25,000 per well in 96-well plates precoated with poly-L-lysine and cultured at 37° C. in an air (95%)-CO2 (5%) incubator. The medium was changed every 2 days. The cortical neurons were treated after 11 days of culture. The A13(1-42) was prepared using the procedure described by Callizot et al., 2013 to ensure monomeric peptide. Compounds and the positive control, BDNF (50 ng/ml), were dissolved in culture medium and then pre-incubated with primary cortical neurons for 1 hour before addition of A13(1-42) (20 μM). After 24 hours of treatment, the cell culture supernatant was removed and the cortical neurons were fixed by a cold solution of ethanol (95%) and acetic acid (5%) for 5 min at −20° C. After permeabilization with 0.1% of saponin, cells were incubated for 2 hours with mouse monoclonal antibody anti-microtubule-associated-protein 2 (MAP-2) at a dilution of 1/400 in PBS containing 1% fetal calf serum and 0.1% of saponin to stain cell bodies and neurites.
This antibody was detected with Alexa Fluor 488 goat anti-mouse IgG at the dilution 1/400 in PBS containing 1% FCS, 0.1% saponin, for 1 hour at room temperature. For each condition, images were obtained using ImageXpress (Molecular Devices) with 20× magnification. The total number of cells and extent of neurite network was determined using Custom Module Editor (Molecular Devices).

Substance | ATP Levels, % Control [1] [%] | Glucose Utilization (glucose in medium), Percent of Untreated Control (C2C12 Mouse Myoblasts) [%] | Percent of ATP Reduction Induced by Control [2] [%] | PrestoBlue Assay, Percent of Control Activity (A172 Cells) [%] | Percent Protection of Neuronal Network ([3]; Aβ (1-42) 20 μM + peptide 100 nM) [%] | Percent Protection of Neuronal Network ([3]; Aβ (1-42) 20 μM + peptide 10 uM) [%]
MRVIRMCLGVGLLGDLAG [SEQ ID NO: 2] | 99.6 | 110.9 | 104.8 | 100.0 |  | 
RVIRMCLGVGLLGDL(dA)G (RVIRMCLGVGLLGDL[dA]G) [SEQ ID NO: 4] | 104.7 | 107.3 | 104.1 | 97.7 |  | 
RVIRMCLGVGLLGDLAG [SEQ ID NO: 3] | 101.5 | 108.0 | 108.4 | 98.9 | 80 | 81
RVIRMCLNVGLLGEL(dA)G [SEQ ID NO: 5] (RVIRMCLNVGLLGEL[dA]G) | 100.8 | 111.2 | 108.0 | 96.9 |  | 
